Reference: the supplement of paper PMC7017272
± gives the standard deviation of the averaged measurements.

Key:
UT-SCC-24A [1] = assay: relative IC50 (midpoint of the fitted curve; maximal inhibition may be below 50%); higher = less potent; settings: treatment time: 3 days
Protocol: (§1)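 HNSCC cell lines (500 cells/well, 384-well) were cultured on plastic, on top of (2D) or embedded (3D) in Matrigel or human leiomyoma matrix Myogel (500 ug/mL; Myogel 3D mixed with rat collagen I). Cells were treated for 3 days with 5 ten-fold concentrations of each drug, and viability was read by CellTiter-Glo. Viability was normalised to DMSO (0% inhibition) and 100 uM benzethonium chloride (100% inhibition) controls and fitted with the FIMM DSRT pipeline to give IC50 (nM), maximal % inhibition and the drug sensitivity score (DSS). Suffixes _1/_2/_3 on drug names are replicates.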

UT-SCC-24A [2] = assay: drug sensitivity score (DSS); higher = more sensitive; settings: treatment time: 3 days
Protocol: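 HNSCC cell lines (500 cells/well, 384-well) were cultured on plastic, on top of (2D) or embedded (3D) in Matrigel or human leiomyoma matrix Myogel (500 ug/mL; Myogel 3D mixed with rat collagen I). Cells were treated for 3 days with 5 ten-fold concentrations of each drug, and viability was read by CellTiter-Glo. Suffixes _1/_2/_3 on drug names are replicates.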

UT-SCC-44 [3] = assay: relative IC50 (midpoint of the fitted curve; maximal inhibition may be below 50%); higher = less potent; settings: treatment time: 3 days
In short: (§2)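 Three growth formats were used for HPV-negative HNSCC cell lines in 384-well plates at 500 cells/well: bare plastic, wells coated with Matrigel or Myogel (500 µg/mL), and embedding in Matrigel or Myogel plus rat collagen I. Compounds were added at five 10-fold concentrations, and after 3 days CellTiter-Glo 2.0 luminescence was recorded and normalised to vehicle (0.1% DMSO) and cell-killing control wells. IC50, maximal inhibition and drug sensitivity score came from percent-inhibition dose–response fitting in the FIMM pipeline.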

UT-SCC-42B [4] = assay: as above; settings: treatment time: 3 days
In short: as §2

UT-SCC-106A [5] = assay: as above; settings: treatment time: 3 days
In short: as §2

UT-SCC-73 [6] = assay: as above; settings: culture condition: plastic 2D (no matrix); treatment time: 3 days
In short: as §2

UT-SCC-14 = assay: drug sensitivity score (DSS); higher = more sensitive; extreme values may be limits of the assay; settings: treatment time: 3 days
In short: as §2

UT-SCC-28 = assay: as above; settings: treatment time: 3 days
In short: as §2

UT-SCC-81 = assay: as above; settings: treatment time: 3 days
In short: as §2

UT-SCC-44 [7] = assay: as above; settings: treatment time: 3 days
In short: as §2

UT-SCC-40 = assay: as above; settings: treatment time: 3 days
In short: as §2

UT-SCC-42B [8] = assay: as above; settings: treatment time: 3 days
In short: as §2

UT-SCC-8 = assay: as above; settings: treatment time: 3 days
In short: as §2

UT-SCC-106A [9] = assay: as above; settings: treatment time: 3 days
In short: as §2

UT-SCC-73 [10] = assay: as above; settings: treatment time: 3 days
In short: as §2

UT-SCC-24B = assay: as above; settings: treatment time: 3 days
In short: as §2

UT-SCC-42A = assay: as above; settings: treatment time: 3 days
In short: as §2

UT-SCC-24A [11] = assay: maximal % inhibition of viability relative to DMSO; higher = stronger effect; settings: treatment time: 3 days
Protocol: as §1

[12] = culture condition: embedded in Myogel + collagen I
[13] = culture condition: on top of Matrigel
[14] = culture condition: on top of Myogel
[15] = culture condition: plastic 2D (no matrix)
[16] = culture condition: embedded in Matrigel

**Q.** What does the source list for C#Cc1cccc(Nc2ncnc3cc(OCCOC)c(OCCOC)cc23)c1 [Erlotinib]?
**A.** relative IC50 (UT-SCC-24A [1]; [12]): 1560 nM; relative IC50 (UT-SCC-24A [1]; [13]): 860 nM; relative IC50 (UT-SCC-24A [1]; [14]): > 9890 nM; relative IC50 (UT-SCC-24A [1]; [15]): 855 nM; drug sensitivity score (UT-SCC-24A [2]; [16]): 8.87 ± 3.6 DSS; drug sensitivity score (UT-SCC-24A [2]; [12]): 1.63 ± 1 DSS; drug sensitivity score (UT-SCC-24A [2]; [13]): 5.7 ± 1.7 DSS; drug sensitivity score (UT-SCC-24A [2]; [14]): 0 DSS; drug sensitivity score (UT-SCC-24A [2]; [15]): 3.03 ± 0.93 DSS; relative IC50 (UT-SCC-44 [3]; [16]): > 9890 nM; relative IC50 (UT-SCC-44 [3]; [13]): > 9890 nM; relative IC50 (UT-SCC-42B [4]; [16]): 2110 nM; relative IC50 (UT-SCC-42B [4]; [14]): > 9890 nM; relative IC50 (UT-SCC-42B [4]; [15]): > 9890 nM; relative IC50 (UT-SCC-106A [5]; [16]): 2070 nM; relative IC50 (UT-SCC-106A [5]; [14]): > 9890 nM; relative IC50 (UT-SCC-73 [6]): > 9890 nM; drug sensitivity score (UT-SCC-14; [16]): 1.73 ± 0.57 DSS; drug sensitivity score (UT-SCC-14; [12]): 0.0333 ± 0.058 DSS; drug sensitivity score (UT-SCC-14; [13]): 0.4 ± 0.69 DSS; drug sensitivity score (UT-SCC-14; [14]): 0.733 ± 1.3 DSS; drug sensitivity score (UT-SCC-14; [15]): 0.9 ± 1.6 DSS; drug sensitivity score (UT-SCC-28; [16]): 0 DSS; drug sensitivity score (UT-SCC-28; [12]): 1.27 ± 2.2 DSS; drug sensitivity score (UT-SCC-28; [13]): 0 DSS; drug sensitivity score (UT-SCC-28; [15]): 0 DSS; drug sensitivity score (UT-SCC-81; [16]): 10.4 ± 3.8 DSS; drug sensitivity score (UT-SCC-81; [12]): 0 DSS; drug sensitivity score (UT-SCC-81; [13]): 5.17 ± 2.1 DSS; drug sensitivity score (UT-SCC-81; [14]): 0 DSS; drug sensitivity score (UT-SCC-81; [15]): 0.2 ± 0.27 DSS; drug sensitivity score (UT-SCC-44 [7]; [16]): 0 DSS; drug sensitivity score (UT-SCC-44 [7]; [12]): 0.133 ± 0.23 DSS; drug sensitivity score (UT-SCC-44 [7]; [13]): 0 DSS; drug sensitivity score (UT-SCC-44 [7]; [14]): 0.0667 ± 0.12 DSS; drug sensitivity score (UT-SCC-44 [7]; [15]): 0.0667 ± 0.12 DSS; drug sensitivity score (UT-SCC-40; [16]): 0.333 ± 0.31 DSS; drug sensitivity score (UT-SCC-40; [12]): 1.97 ± 3.4 DSS; drug sensitivity score (UT-SCC-40; [13]): 0 DSS; drug sensitivity score (UT-SCC-40; [14]): 0 DSS; drug sensitivity score (UT-SCC-40; [15]): 0.0333 ± 0.058 DSS; drug sensitivity score (UT-SCC-42B [8]; [16]): 2.4 ± 1.4 DSS; drug sensitivity score (UT-SCC-42B [8]; [13]): 1 ± 1.7 DSS; drug sensitivity score (UT-SCC-42B [8]; [14]): 0 DSS; drug sensitivity score (UT-SCC-42B [8]; [15]): 0 DSS; drug sensitivity score (UT-SCC-8; [16]): 7.57 ± 0.46 DSS; drug sensitivity score (UT-SCC-8; [12]): 0 DSS; drug sensitivity score (UT-SCC-8; [13]): 5.63 ± 0.65 DSS; drug sensitivity score (UT-SCC-8; [14]): 3.4 ± 2.5 DSS; drug sensitivity score (UT-SCC-8; [15]): 4.2 ± 1.1 DSS; drug sensitivity score (UT-SCC-106A [9]; [16]): 1.43 ± 0.8 DSS; drug sensitivity score (UT-SCC-106A [9]; [12]): 0 DSS; drug sensitivity score (UT-SCC-106A [9]; [13]): 1.53 ± 2.1 DSS; drug sensitivity score (UT-SCC-106A [9]; [14]): 0 DSS; drug sensitivity score (UT-SCC-106A [9]; [15]): 1.97 ± 1.7 DSS; drug sensitivity score (UT-SCC-73 [10]; [16]): 0.3 ± 0.3 DSS; drug sensitivity score (UT-SCC-73 [10]; [12]): 1.17 ± 2 DSS; drug sensitivity score (UT-SCC-73 [10]; [13]): 0 DSS; drug sensitivity score (UT-SCC-73 [10]; [14]): 0.233 ± 0.4 DSS; drug sensitivity score (UT-SCC-73 [10]; [15]): 0 DSS; drug sensitivity score (UT-SCC-24B; [16]): 11.3 ± 1 DSS; drug sensitivity score (UT-SCC-24B; [12]): 8.03 ± 3 DSS; drug sensitivity score (UT-SCC-24B; [13]): 10.4 ± 0.51 DSS; drug sensitivity score (UT-SCC-24B; [14]): 3.97 ± 0.21 DSS; drug sensitivity score (UT-SCC-24B; [15]): 15.2 ± 1.4 DSS; drug sensitivity score (UT-SCC-42A; [16]): 1.47 ± 2 DSS; drug sensitivity score (UT-SCC-42A; [12]): 0 DSS; drug sensitivity score (UT-SCC-42A; [13]): 2.73 ± 2.8 DSS; drug sensitivity score (UT-SCC-42A; [14]): 0.1 ± 0.1 DSS; drug sensitivity score (UT-SCC-42A; [15]): 1.73 ± 1.5 DSS; maximal % inhibition of viability (UT-SCC-24A [11]; [16]): 65.2 ± 8%; maximal % inhibition of viability (UT-SCC-24A [11]; [12]): 27.5 ± 6.3%; maximal % inhibition of viability (UT-SCC-24A [11]; [13]): 50.9 ± 7.2%; maximal % inhibition of viability (UT-SCC-24A [11]; [14]): 7.53 ± 1.6%; maximal % inhibition of viability (UT-SCC-24A [11]; [15]): 30.6 ± 5%
